Values quoted from earlier work as cited in patent US20150024055A1, “ENHANCED IMMEDIATE RELEASE FORMULATIONS OF TOPIRAMATE” (Supernus Pharmaceuticals, Inc., priority 2006, published 2015).

Experiments:
[1] = in vivo

CC1(C)O[C@@H]2[C@@H](CO[C@@]3(COS(N)(=O)=O)OC(C)(C)O[C@@H]23)O1 [Topiramate]
time to reach peak plasma levels [1]: about two | solubility in organic solvents (acetone, dimethylsulfoxide and ethanol): soluble | solubility in alkaline solutions (alkaline solutions containing sodium hydroxide or sodium phosphate): soluble | solubility of topiramate in water (water, room temperature): about 9.8 mg/ml
